Reference: ChEMBL document CHEMBL1201861, “Genomics of Drug Sensitity in Cancer screening data, Wellcome Trust Sanger Institute”

What was measured:
Experiment in all cases: cells
Conditions in all cases: Homo sapiens
COLO-800 = format: functional, cell-based;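 also: growth inhibition of COLO-800 cells, read out with a cell viability assay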
Description: SANGER: Inhibition of human COLO-800 cell growth in a cell viability assay.

Calu-6 = format: functional, cell-based;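 also: growth of human Calu-6 cells, read out by a cell viability assay, IC50 marking inhibition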
Description: SANGER: Inhibition of human Calu-6 cell growth in a cell viability assay.

DB = format: functional, cell-based
Description: SANGER: Inhibition of human DB cell growth in a cell viability assay.

DEL = format: functional, cell-based;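 also: growth inhibition of the human DEL cell line, read out with a cell viability assay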
Description: SANGER: Inhibition of human DEL cell growth in a cell viability assay.

EKVX = format: functional, cell-based;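 also: growth inhibition of human EKVX cells, read out with a cell viability assay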
Description: SANGER: Inhibition of human EKVX cell growth in a cell viability assay.

EM-2 = format: functional, cell-based;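 also: growth inhibition of EM-2 cells, read out with a cell viability assay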
Description: SANGER: Inhibition of human EM-2 cell growth in a cell viability assay.

EW-11 = format: functional, cell-based;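 also: growth inhibition of human EW-11 cells, measured with a cell viability assay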
Description: SANGER: Inhibition of human EW-11 cell growth in a cell viability assay.

EW-16 = format: functional, cell-based;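 also: growth inhibition of human EW-16 cells, read out as cell viability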
Description: SANGER: Inhibition of human EW-16 cell growth in a cell viability assay.

EW-24 = format: functional, cell-based;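 also: human EW-24 cancer cell line, growth inhibition read out via a cell viability assay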
Description: SANGER: Inhibition of human EW-24 cell growth in a cell viability assay.

EW-3 = format: functional, cell-based;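 also: cell viability assay read-out, IC50 reflects inhibition of growth of the EW-3 cells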
Description: SANGER: Inhibition of human EW-3 cell growth in a cell viability assay.

GAK = format: functional, cell-based;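 also: cell growth inhibition read out by a cell viability assay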
Description: SANGER: Inhibition of human GAK cell growth in a cell viability assay.

GOTO = format: functional, cell-based;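 also: growth inhibition of GOTO cells, read out by a cell viability assay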
Description: SANGER: Inhibition of human GOTO cell growth in a cell viability assay.

GR-ST = format: functional, cell-based
Description: SANGER: Inhibition of human GR-ST cell growth in a cell viability assay.

HC-1 = format: functional, cell-based;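 also: growth inhibition of HC-1 cells measured by a cell viability assay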
Description: SANGER: Inhibition of human HC-1 cell growth in a cell viability assay.

HD-MY-Z = format: functional, cell-based;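 also: growth inhibition of HD-MY-Z cells, read out with a cell viability assay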
Description: SANGER: Inhibition of human HD-MY-Z cell growth in a cell viability assay.

HT-144 = format: functional, cell-based
Description: SANGER: Inhibition of human HT-144 cell growth in a cell viability assay.

IA-LM = format: functional, cell-based;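 also: cell viability assay measuring growth inhibition of human IA-LM cells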
Description: SANGER: Inhibition of human IA-LM cell growth in a cell viability assay.

K562 = format: functional, cell-based
Description: SANGER: Inhibition of human K-562 cell growth in a cell viability assay.

KALS-1 = format: functional, cell-based;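 also: growth inhibition of KALS-1 cells, determined with a cell viability assay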
Description: SANGER: Inhibition of human KALS-1 cell growth in a cell viability assay.

KARPAS-299 = format: functional, cell-based
Description: SANGER: Inhibition of human KARPAS-299 cell growth in a cell viability assay.

KGN = format: functional, cell-based;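 also: growth inhibition of KGN cells, read out with a cell viability assay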
Description: SANGER: Inhibition of human KGN cell growth in a cell viability assay.

KINGS-1 = format: functional, cell-based;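 also: cell viability assay measuring suppression of KINGS-1 cell growth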
Description: SANGER: Inhibition of human KINGS-1 cell growth in a cell viability assay.

KLE = format: functional, cell-based;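 also: growth inhibition of human KLE cells, read out with a cell viability assay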
Description: SANGER: Inhibition of human KLE cell growth in a cell viability assay.

KNS-81-FD = format: functional, cell-based;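 also: growth inhibition of KNS-81-FD cells, read out with a cell viability assay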
Description: SANGER: Inhibition of human KNS-81-FD cell growth in a cell viability assay.

L-363 = format: functional, cell-based
Description: SANGER: Inhibition of human L-363 cell growth in a cell viability assay.

LB373-MEL-D = format: functional, cell-based;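 also: growth inhibition of the cell line, read out in a cell viability assay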
Description: SANGER: Inhibition of human LB373-MEL-D cell growth in a cell viability assay.

LC-2-ad = format: functional, cell-based;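 also: growth inhibition of human LC-2-ad cells, read out with a cell viability assay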
Description: SANGER: Inhibition of human LC-2-ad cell growth in a cell viability assay.

LOX IMVI = format: functional, cell-based
Description: SANGER: Inhibition of human LOXIMVI cell growth in a cell viability assay.

ML-2 = format: functional, cell-based;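 also: growth inhibition of ML-2 cells, measured with a cell viability readout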
Description: SANGER: Inhibition of human ML-2 cell growth in a cell viability assay.

MS-1 = format: functional, cell-based;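 also: growth inhibition of MS-1 cells, read out by cell viability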
Description: SANGER: Inhibition of human MS-1 cell growth in a cell viability assay.

MZ1-PC = format: functional, cell-based;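 also: cell viability assay measuring growth inhibition of human MZ1-PC cells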
Description: SANGER: Inhibition of human MZ1-PC cell growth in a cell viability assay.

MZ7-mel = format: functional, cell-based;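 also: growth inhibition of human MZ7-mel cells, measured by a cell viability assay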
Description: SANGER: Inhibition of human MZ7-mel cell growth in a cell viability assay.

NB5 = format: functional, cell-based;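 also: growth inhibition of NB5 cells, read out as cell viability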
Description: SANGER: Inhibition of human NB5 cell growth in a cell viability assay.

NCI-H1092 = format: functional, cell-based;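 also: cell growth inhibition measured with a cell viability assay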
Description: SANGER: Inhibition of human NCI-H1092 cell growth in a cell viability assay.

NCI-H1155 = format: functional, cell-based;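 also: cell growth inhibition measured by a viability assay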
Description: SANGER: Inhibition of human NCI-H1155 cell growth in a cell viability assay.

NCI-H1355 = format: functional, cell-based;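 also: growth inhibition of human NCI-H1355 cells, read out by a cell viability assay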
Description: SANGER: Inhibition of human NCI-H1355 cell growth in a cell viability assay.

NCI-H1395 = format: functional, cell-based;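 also: cell viability assay read-out quantifying reduced proliferation of human NCI-H1395 cells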
Description: SANGER: Inhibition of human NCI-H1395 cell growth in a cell viability assay.

NCI-H1648 = format: functional, cell-based;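 also: cell viability assay measuring inhibition of NCI-H1648 cell growth, from the Sanger screening data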
Description: SANGER: Inhibition of human NCI-H1648 cell growth in a cell viability assay.

NCI-H1650 = format: functional, cell-based;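 also: growth inhibition of human NCI-H1650 cells measured by a cell viability assay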
Description: SANGER: Inhibition of human NCI-H1650 cell growth in a cell viability assay.

NCI-H1838 = format: functional, cell-based;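 also: growth inhibition of NCI-H1838 cells, determined with a cell viability readout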
Description: SANGER: Inhibition of human NCI-H1838 cell growth in a cell viability assay.

NCI-H2126 = format: functional, cell-based;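 also: growth inhibition of the cancer cell line, determined with a cell viability readout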
Description: SANGER: Inhibition of human NCI-H2126 cell growth in a cell viability assay.

NCI-H226 = format: functional, cell-based;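 also: cell viability read-out used to gauge growth inhibition of the cells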
Description: SANGER: Inhibition of human NCI-H226 cell growth in a cell viability assay.

NCI-H23 = format: functional, cell-based;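 also: cell viability assay measuring growth inhibition of NCI-H23 cells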
Description: SANGER: Inhibition of human NCI-H23 cell growth in a cell viability assay.

NEC8 = format: functional, cell-based;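 also: growth inhibition of human NEC8 cells, read out by a cell viability assay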
Description: SANGER: Inhibition of human NEC8 cell growth in a cell viability assay.

RKO = format: functional, cell-based;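 also: growth inhibition of human RKO cells, read out with a cell viability assay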
Description: SANGER: Inhibition of human RKO cell growth in a cell viability assay.

RXF 393 = format: functional, cell-based;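 also: growth inhibition of human RXF 393 cells, read out with a cell viability assay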
Description: SANGER: Inhibition of human RXF393 cell growth in a cell viability assay.

SBC-1 = format: functional, cell-based;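 also: cell viability assay measuring growth inhibition of the SBC-1 cell line, IC50 being the concentration that halves growth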
Description: SANGER: Inhibition of human SBC-1 cell growth in a cell viability assay.

SF-126 = format: functional, cell-based;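 also: growth inhibition of human SF126 cells, read out with a cell viability assay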
Description: SANGER: Inhibition of human SF126 cell growth in a cell viability assay.

SH-4 = format: functional, cell-based;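 also: growth inhibition of SH-4 cells, read out with a cell viability assay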
Description: SANGER: Inhibition of human SH-4 cell growth in a cell viability assay.

SK-N-DZ = format: functional, cell-based;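 also: growth inhibition of the cancer cell line, read out through a viability assay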
Description: SANGER: Inhibition of human SK-N-DZ cell growth in a cell viability assay.

SK-NEP-1 = format: functional, cell-based;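 also: growth inhibition of human SK-NEP-1 cells, read out by a cell viability assay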
Description: SANGER: Inhibition of human SK-NEP-1 cell growth in a cell viability assay.

SK-PN-DW = format: functional, cell-based;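 also: growth inhibition measured with a viability assay on these cells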
Description: SANGER: Inhibition of human SK-PN-DW cell growth in a cell viability assay.

SW 962 = format: functional, cell-based;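 also: growth inhibition of human SW962 cells, read out by a cell viability assay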
Description: SANGER: Inhibition of human SW962 cell growth in a cell viability assay.

A101D = format: functional, cell-based;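 also: growth inhibition of the cell line, measured with a viability assay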
Description: SANGER: Inhibition of human A101D cell growth in a cell viability assay.

TE-12 = format: functional, cell-based;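 also: growth inhibition of TE-12 cells, read out by a cell viability assay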
Description: SANGER: Inhibition of human TE-12 cell growth in a cell viability assay.

TE-5 = format: functional, cell-based;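 also: inhibition of cell growth, read out by a cell viability assay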
Description: SANGER: Inhibition of human TE-5 cell growth in a cell viability assay.

TE-8 = format: functional, cell-based;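 also: growth inhibition of TE-8 cells, measured with a cell viability readout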
Description: SANGER: Inhibition of human TE-8 cell growth in a cell viability assay.

TE-9 = format: functional, cell-based
Description: SANGER: Inhibition of human TE-9 cell growth in a cell viability assay.

TGBC1TKB = format: functional, cell-based
Description: SANGER: Inhibition of human TGBC1TKB cell growth in a cell viability assay.

TK-10 = format: functional, cell-based
Description: SANGER: Inhibition of human TK10 cell growth in a cell viability assay.

U-87 MG = format: functional, cell-based, U-87MG ATCC
Description: SANGER: Inhibition of human U-87-MG cell growth in a cell viability assay.

VA-ES-BJ = format: functional, cell-based
Description: SANGER: Inhibition of human VA-ES-BJ cell growth in a cell viability assay.

no-10 = format: functional, cell-based
Description: SANGER: Inhibition of human no-10 cell growth in a cell viability assay.

no-11 = format: functional, cell-based
Description: SANGER: Inhibition of human no-11 cell growth in a cell viability assay.

CGTH-W-1 = format: functional, cell-based
Description: SANGER: Inhibition of human CGTH-W-1 cell growth in a cell viability assay.

COLO-668 = format: functional, cell-based
Description: SANGER: Inhibition of human COLO-668 cell growth in a cell viability assay.

Measured: IC50

CCNc1cc(N[C@H]2CC[C@@H](O)CC2)nc(Nc2ccc3c(ccn3Cc3ccccc3)c2)n1
4.72 µM: RKO
0.702 µM: LC-2-ad
3.31 µM: SH-4
5.05 µM: TE-12
> 5.12 µM: all other assays above

COc1cc(C)c(Sc2cnc(NC(=O)c3ccc(CNC(C)C(C)(C)C)cc3)s2)cc1C(=O)N1CCN(C(C)=O)CC1 (configuration not stated)
2.42 µM: TE-12
3.34 µM: HT-144
2.49 µM: SH-4
4.94 µM: L-363
6.22 µM: NCI-H1355
8.84 µM: RKO
5.39 µM: IA-LM
3.76 µM: MZ1-PC
6.44 µM: TE-8
3.81 µM: ML-2
10.2 µM: SK-PN-DW
9.39 µM: LC-2-ad
8.57 µM: EW-3
1.72 µM: EW-16
9.44 µM: HD-MY-Z
4.81 µM: A101D
8.13 µM: SW 962
> 10.2 µM: all other assays above
